Data on 36 compounds can be found in ChEMBL document CHEMBL2150866, “Irreversible 4-Aminopiperidine Transglutaminase 2 Inhibitors for Huntington's Disease” (ACS Med Chem Lett, 2012).

Molecules are shown by their SMILES. A value given as a limit tells only on which side of the number the result lay.

In data set [1] the target is T1, Protein-glutamine gamma-glutamyltransferase (Homo sapiens, UniProt P21980).
T1 sequence (P21980 whole entry): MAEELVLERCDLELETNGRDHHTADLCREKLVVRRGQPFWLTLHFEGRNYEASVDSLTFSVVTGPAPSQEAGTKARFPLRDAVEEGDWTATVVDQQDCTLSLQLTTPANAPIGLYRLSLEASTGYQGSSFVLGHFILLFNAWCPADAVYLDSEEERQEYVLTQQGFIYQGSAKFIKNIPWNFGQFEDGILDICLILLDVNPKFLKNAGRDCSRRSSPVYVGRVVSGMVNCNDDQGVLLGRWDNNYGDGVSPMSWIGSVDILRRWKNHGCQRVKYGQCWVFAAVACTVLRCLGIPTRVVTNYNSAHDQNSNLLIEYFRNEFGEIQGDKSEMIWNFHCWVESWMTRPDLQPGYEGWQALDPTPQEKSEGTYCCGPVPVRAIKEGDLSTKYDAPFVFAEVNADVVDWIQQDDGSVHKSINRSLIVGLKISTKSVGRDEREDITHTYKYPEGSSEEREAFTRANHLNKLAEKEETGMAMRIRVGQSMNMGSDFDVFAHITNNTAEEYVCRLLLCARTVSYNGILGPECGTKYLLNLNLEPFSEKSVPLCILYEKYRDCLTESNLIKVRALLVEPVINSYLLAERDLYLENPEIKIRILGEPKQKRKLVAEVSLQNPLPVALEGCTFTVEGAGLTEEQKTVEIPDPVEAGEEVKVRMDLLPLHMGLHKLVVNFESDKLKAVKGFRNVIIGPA
Description: Inhibition of human TGM2.

Data set [2] can be described thus: Half life in mouse plasma at 1 uM. It counts as ADME, cell-free.
A short description of data set [3]: Half life in human plasma at 1 uM. It is filed as ADME, cell-free.
Data set [4] can be described thus: Chemical stability of the compound in phosphate buffer at pH 7.4 assessed as GSH adduct formation after 120 hrs. It counts as physicochemical. Conditions: pH 7.4, 120 h.

As for `C=CC(=O)NC1CCN(S(=O)(=O)c2ccc(C(=O)NCCc3cccc(Cl)c3)cc2)CC1`, the IC50 (as a rule, the concentration that inhibits the measured activity by half) in data set [1] turned out to be 170 nM. Further, the half-life at 1 µM in data set [2] and in data set [3] was above 360 min throughout. Moreover, in data set [4], the Stability entry is recorded as “Stable”.
In the case of `C=CC(=O)N[C@@H]1CCN(S(=O)(=O)c2ccc(NC(=O)OCc3ccccc3)cc2)C1`, half-maximal inhibition in data set [1] (IC50) was put at 30000 nM. In addition, the half-life at 1 µM in data set [2] and in data set [3] was above 360 min in each case.
In data set [1], `C=CC(=O)NC1CCN(S(=O)(=O)c2ccc(C(=O)NCCN3CCOCC3)cc2)CC1` gave an IC50 of 380 nM. Moreover, the half-life at 1 µM in data set [2] and in data set [3] was above 360 min throughout.
With `C=CC(=O)NC1CCN(S(=O)(=O)c2ccc(C(=O)NCCc3ccc(C)c(C)c3)cc2)CC1`, the IC50 in data set [1] stood at 180 nM. Further, the half-life at 1 µM in data set [2] and in data set [3] was above 360 min in each case.
Consider `C=CC(=O)NC1CCN(S(=O)(=O)c2ccc(C(=O)NCCC3CCCCC3)cc2)CC1`, for which the IC50 in data set [1] amounted to 140 nM. For the same compound, the half-life at 1 µM in data set [2] and in data set [3] was above 360 min in each case.
As to `C=CC(=O)NC1CCN(S(=O)(=O)c2ccc(C(=O)NCCC3CCOCC3)cc2)CC1`, the IC50 in data set [1] was 360 nM. Moreover, the half-life at 1 µM in data set [2] and in data set [3] was above 360 min in each case.
The compound `C=CC(=O)NCC1CCN(S(=O)(=O)c2ccc(NC(=O)OCc3ccccc3)cc2)CC1` gave an IC50 in data set [1] of 5100 nM. In addition, the half-life at 1 µM in data set [2] and in data set [3] was above 360 min each time.
Consider `C=CC(=O)NC1CCN(S(=O)(=O)c2ccc(C(=O)NCCc3ccc(C(F)(F)F)cc3)cc2)CC1`, for which, in data set [1], the IC50 came out at 550 nM. For the same compound, the half-life at 1 µM in data set [2] and in data set [3] was above 360 min throughout.
In data set [1], `C=CC(=O)NC1CCN(S(=O)(=O)c2ccc(C(=O)NC3Cc4ccccc4C3)cc2)CC1` yielded an IC50 of 200 nM. The half-life at 1 µM in data set [2] and in data set [3] was above 360 min throughout.
Turning to `C=CC(=O)NC1CCN(C(=O)c2ccc(NC(=O)OCc3ccccc3)cc2)CC1`, in data set [1], half-maximal inhibition (IC50) required 8900 nM. Further, the half-life at 1 µM in data set [2] and in data set [3] was above 360 min throughout.
`C=CC(=O)NCCN(C)S(=O)(=O)c1ccc(NC(=O)OCc2ccccc2)cc1`: in data set [1], it took 3300 nM to reach half-maximal inhibition (IC50). Further, the half-life at 1 µM in data set [2] and in data set [3] was above 360 min in each case.
Take `C=CC(=O)NC1CCN(S(=O)(=O)c2ccc(C(=O)NCc3cccc4ccccc34)cc2)CC1`: the IC50 in data set [1] is 170 nM. The half-life at 1 µM in data set [2] and in data set [3] was above 360 min each time.
In data set [1], `C=CC(=O)NC1CCN(S(=O)(=O)c2ccc(C(=O)NCCc3ccc4cccnc4c3)cc2)CC1` displayed an IC50 of 310 nM. Moreover, the half-life at 1 µM in data set [2] and in data set [3] was above 360 min each time.
In data set [1], `C=CC(=O)NC1CCN(S(=O)(=O)c2ccc(C(=O)NCCC34CC5CC(CC(C5)C3)C4)cc2)CC1` yielded an IC50 of 660 nM. Moreover, the half-life at 1 µM in data set [2] and in data set [3] was above 360 min in each case.
`Nc1ccc(S(=O)(=O)N2CCN(C(=O)C3CC3)CC2)cc1` gave an IC50 in data set [1] above 80000 nM. The half-life (commonly the time needed for the level to fall by half in the phase considered) at 1 µM is above 1440 min in data set [2] and above 360 min in data set [3].
For the compound `C=CC(=O)NC1CCN(S(=O)(=O)c2ccc(C(=O)NCc3ccccc3)cc2)CC1`, the IC50 in data set [1] was determined as 200 nM. Besides, the half-life at 1 µM in data set [2] and in data set [3] was above 360 min in each case.
In turn, `C=CC(=O)NC1CCN(S(=O)(=O)c2ccc(C(=O)N3CCc4ccccc4C3)cc2)CC1` showed an IC50 in data set [1] of 620 nM. The half-life at 1 µM in data set [2] and in data set [3] was above 360 min each time.
As for `C=CC(=O)NC1CCN(S(=O)(=O)c2ccc(C(=O)NCCc3ccc4ccccc4c3)cc2)CC1`, inhibition in data set [1] was half-maximal at 280 nM (IC50). Moreover, the half-life at 1 µM in data set [2] and in data set [3] was above 360 min each time.
In data set [1], `C=CC(=O)NC1CCN(S(=O)(=O)c2ccc(C(=O)N(C)Cc3ccccc3)cc2)CC1` gave an IC50 of 630 nM. The half-life at 1 µM in data set [2] and in data set [3] was above 360 min throughout.
With `C=CC(=O)NC1CCN(S(=O)(=O)c2ccc(C(=O)NCCCc3ccccc3)cc2)CC1`, the IC50 in data set [1] is 770 nM. Further, the half-life at 1 µM in data set [2] and in data set [3] was above 360 min each time.
`C=CC(=O)NC1CCN(S(=O)(=O)c2ccc(C(=O)NCCc3ccccc3OC)cc2)CC1`: half-maximal inhibition in data set [1] (IC50) was put at 230 nM. Also, the half-life at 1 µM in data set [2] and in data set [3] was above 360 min each time.
The compound `C=CC(=O)N[C@@H]1CCCN(S(=O)(=O)c2ccc(NC(=O)OCc3ccccc3)cc2)C1` showed an IC50 in data set [1] above 80000 nM. The half-life at 1 µM in data set [2] and in data set [3] was above 360 min each time.
On to `C=CC(=O)NC1CN(S(=O)(=O)c2ccc(NC(=O)OCc3ccccc3)cc2)C1`, for which the IC50 in data set [1] worked out at 1600 nM. Moreover, the half-life at 1 µM in data set [2] and in data set [3] was above 360 min each time.
`C=CC(=O)NC1CCN(S(=O)(=O)c2ccc(C(=O)NCCc3ccc(OC)c(OC)c3)cc2)CC1` returned an IC50 in data set [1] of 460 nM. Besides, the half-life at 1 µM in data set [2] and in data set [3] was above 360 min throughout.
In data set [1], `C=CC(=O)NC1CCN(S(=O)(=O)c2ccc(C(=O)NCCc3ccc(Cl)cc3)cc2)CC1` came in with an IC50 of 280 nM. In addition, the half-life at 1 µM in data set [2] and in data set [3] was above 360 min each time.
Regarding `C=CC(=O)NC1CCN(S(=O)(=O)c2ccc(C(=O)NCCc3ccc(-c4ccccc4)cc3)cc2)CC1`, in data set [1], the IC50 was 57000 nM. For the same compound, the half-life at 1 µM in data set [2] and in data set [3] was above 360 min in each case.
As for `C=CC(=O)NC1CCN(S(=O)(=O)c2ccc(C(=O)NC3CCCc4ccccc43)cc2)CC1` (stereo not drawn), 320 nM corresponded to half-maximal inhibition in data set [1] (IC50). For the same compound, the half-life at 1 µM in data set [2] and in data set [3] was above 360 min throughout.
In turn, `C=CC(=O)NC1CCN(S(=O)(=O)c2ccc(C(=O)N(C)CCc3ccccc3)cc2)CC1` yielded an IC50 in data set [1] of 460 nM. Further, the half-life at 1 µM in data set [2] and in data set [3] was above 360 min in each case.
For the compound `C=CC(=O)N[C@H]1CCCN(S(=O)(=O)c2ccc(NC(=O)OCc3ccccc3)cc2)C1`, the IC50 in data set [1] was above 80000 nM. In addition, the half-life at 1 µM in data set [2] and in data set [3] was above 360 min each time.
Turning to `C=CC(=O)NC1CCN(S(=O)(=O)c2ccc(C(=O)N[C@@H]3C[C@H]3c3ccccc3)cc2)CC1` (racemic), the 50% inhibitory concentration (IC50) in data set [1] was determined as 410 nM. The half-life at 1 µM in data set [2] and in data set [3] was above 360 min each time.
`C=CC(=O)NC1CCN(Cc2ccc(NC(=O)OCc3ccccc3)cc2)CC1` yielded an IC50 in data set [1] of 1600 nM. The half-life at 1 µM in data set [2] and in data set [3] was above 360 min throughout.
With `C=CC(=O)N[C@H]1CCN(S(=O)(=O)c2ccc(NC(=O)OCc3ccccc3)cc2)C1`, in data set [1], half-maximal inhibition (IC50) required 55000 nM. Further, the half-life at 1 µM in data set [2] and in data set [3] was above 360 min each time.
Consider `C=CC(=O)NC1CCN(S(=O)(=O)c2ccc(C(=O)NCCc3cccc4c3OCO4)cc2)CC1`, for which the IC50 in data set [1] worked out at 280 nM. Besides, the half-life at 1 µM in data set [2] and in data set [3] was above 360 min throughout.
`C=CC(=O)NC1CCN(S(=O)(=O)c2ccc(C(=O)NCCc3cccc4c3OCC4)cc2)CC1` had an IC50 in data set [1] of 260 nM. In addition, the half-life at 1 µM in data set [2] and in data set [3] was above 360 min throughout.
For the compound `C=CC(=O)NC1CCN(S(=O)(=O)c2ccc(C(=O)NCCc3ccc(C(C)(C)C)cc3)cc2)CC1`, the midpoint of inhibition in data set [1], the IC50, lay at 22000 nM. The half-life at 1 µM in data set [2] and in data set [3] was above 360 min in each case.
Consider `C=CC(=O)N1CCN(S(=O)(=O)c2ccc(NC(=O)OCc3ccccc3)cc2)CC1`, for which the half-life at 1 µM in data set [2] and in data set [3] was above 360 min in each case.
